Assay results: patent publication US20210386367A1, “DEVICES AND SYSTEMS FOR GASTROINTESTINAL MICROBIOME DETECTION AND MANIPULATION” (Progenity, Inc., priority 2018, published 2021)
≈ marks a conversion by molar mass, not a printed value. Where two headings read alike, the source gives them in different places.

Legend:
Prevotella spp. = settings: cited from earlier work
Klebsiella pneumoniae = settings: cited from earlier work
Lactobacillus spp. = settings: cited from earlier work
E. coli ATCC 25922 = settings: cited from earlier work
[1] = system: Bacteroides spp. (B. fragilis ATCC 25285, B. vulgatus, B. ovatus MMX 3503); settings: cited from earlier work
[2] = system: E. coli (ATCC 25922, ATCC 35218, MMX 1312); settings: cited from earlier work
Veillonella spp = settings: cited from earlier work
Staphylococcus aureus = settings: cited from earlier work
[3] = system: Clostridium spp. clinical isolates; assay: MIC distribution against clinical isolates; format: cell-based; settings: 10 Clostridium spp. isolates
Excerpt: (n=4 C. sporogenes, n=2 C. ramosum and n=4 C. innocuum) clinical isolates (μg/mL).
As used herein, “minimum inhibitory concentration” or “MIC” refers to the lowest concentration of an antimicrobial agent, for example, an antimicrobial agent as described herein, required to inhibit the growth of an organism. […] “MIC90” represents the MIC value at which ≥90% of the strains within a test population are inhibited; the 90th percentile.
Many susceptibility testing methods are known in the art and can be used as described herein (see, e.g., Jorgensen and Ferraro (2009) Clinical Infectious Diseases 49:1749-1755; and Maurer et al. (2017) Infectious Disease Reports 9:6839; the entire contents of each of the foregoing are incorporated herein by reference). For example, antimicrobial susceptibility can be determined using conventional culture based methods such as the broth or agar dilution test. In these dilution tests, the bacterial isolate of interest is inoculated onto different media that include serial dilutions of an antimicrobial agent, and incubated under appropriate conditions (e.g., overnight at 37° C.) to allow for growth to occur. Following the incubation period, the media is examined to determine bacterial growth. The lowest concentration of antibiotic that prevents growth represents the minimal inhibitory concentration (MIC). Broth dilution tests can be miniaturized and mechanized allowing for reproducibility and high throughput.

Proteus mirabilis = settings: cited from earlier work
Enterobacteriaceae = settings: cited from earlier work
Prevotella melanogenica = settings: cited from earlier work
B. fragilis ATCC 25285 = settings: B. fragilis MMX 123 ATCC 25285; cited from earlier work
XDR Enterobacteriaceae = settings: cited from earlier work
Pseudomonas aeruginosa = settings: cited from earlier work
B. ovatus MMX 3503 = assay: Time-kill assay; format: cell-based, Bacteroides ovatus; settings: for time-kill kinetics outcome (bactericidal = ≥3 log reduction in CFU per mL): 2×, 4×, 8× MIC, 2, 6, 24, 48 hr
[4] = system: Bacteroides thetaiotaomicron; settings: cited from earlier work
Klebsiella spp. = settings: cited from earlier work
Enterobacter spp. [5] = settings: cited from earlier work
MDR Enterobacteriaceae = settings: cited from earlier work
Prevotella bivia = settings: cited from earlier work
Bacteroides vulgatus = settings: cited from earlier work
Fusobacterium spp = settings: cited from earlier work
[6] = system: Bacteroides thetaiotaomicron; settings: cited from earlier work; remark: listed apart in the source
Escherichia coli = settings: cited from earlier work
Bacteroides spp = settings: cited from earlier work
Enterobacter spp. [7] = settings: cited from earlier work; remark: listed apart in the source
Enterococcus faecalis = settings: cited from earlier work

CO/N=C(\C(=O)N[C@@H]1C(=O)N2C(C(=O)O)=C(CSc3nc(=O)c(=O)[nH]n3C)CS[C@H]12)c1csc(N)n1 [ceftriaxone]
% S (Prevotella spp.): 90% | MIC50 (Prevotella spp.): 1 µg/mL (≈ 1.8 µM) | MIC90 (Prevotella spp.): 8 µg/mL (≈ 14.4 µM) | MIC range (Prevotella spp.): ≤0.008 to 64 µg/mL | % S (Klebsiella pneumoniae): 67% | MIC50 (Klebsiella pneumoniae): ≤0.25 µg/mL | MIC90 (Klebsiella pneumoniae): >64 µg/mL | MIC50 (Lactobacillus spp.): 4 µg/mL (≈ 7.21 µM) | MIC90 (Lactobacillus spp.): 8 µg/mL (≈ 14.4 µM) | MIC range (Lactobacillus spp.): 0.12 to 64 µg/mL | CLSI QC range (MIC) (E. coli ATCC 25922): (0.03-0.12) μg/mL | CLSI QC range (agar MIC) [1]: 32 to 128 µg/mL | CLSI QC range (agar MIC) [2]: 0.03 to 0.12 µg/mL | % S (Veillonella spp): 79% | MIC50 (Veillonella spp): 4 µg/mL (≈ 7.21 µM) | MIC90 (Veillonella spp): 8 µg/mL (≈ 14.4 µM) | MIC range (Veillonella spp): 0.03 to 8 µg/mL | % S (Staphylococcus aureus): 54.5% | MIC50 (Staphylococcus aureus): 4 µg/mL (≈ 7.21 µM) | MIC90 (Staphylococcus aureus): >8 µg/mL | Cumulative percentage of isolates inhibited at MIC ([3]; MIC 4 μg/mL): 40.0%

C[C@@H](O)[C@H]1C(=O)N2C(C(=O)O)=C(S[C@@H]3CN[C@H](C(=O)N(C)C)C3)[C@H](C)[C@H]12 [meropenem]
% S (Proteus mirabilis): 99.4% | MIC50 (Proteus mirabilis): 0.06 µg/mL (≈ 0.156 µM) | MIC90 (Proteus mirabilis): 0.12 µg/mL (≈ 0.313 µM) | % S (Enterobacteriaceae): 97.2% | MIC50 (Enterobacteriaceae): 0.03 µg/mL (≈ 0.0782 µM) | MIC90 (Enterobacteriaceae): 0.12 µg/mL (≈ 0.313 µM) | % S (Prevotella melanogenica): 100% | MIC50 (Prevotella melanogenica): 0.06 µg/mL (≈ 0.156 µM) | MIC90 (Prevotella melanogenica): 0.25 µg/mL (≈ 0.652 µM) | MIC range (Prevotella melanogenica): ≤0.03 to 0.25 µg/mL | CLSI QC range (MIC) (B. fragilis ATCC 25285): (0.03-0.25)^1 μg/mL | % S (XDR Enterobacteriaceae): 20.5% | MIC50 (XDR Enterobacteriaceae): 8 µg/mL (≈ 20.9 µM) | MIC90 (XDR Enterobacteriaceae): >8 µg/mL | CLSI QC range (MIC) (E. coli ATCC 25922): (0.008-0.06)^1 μg/mL | CLSI QC range (agar MIC) [1]: 0.03 to 0.25 µg/mL | CLSI QC range (agar MIC) [2]: 0.008 to 0.06 µg/mL | % S (Pseudomonas aeruginosa): 64.2% | MIC50 (Pseudomonas aeruginosa): 1 µg/mL (≈ 2.61 µM) | MIC90 (Pseudomonas aeruginosa): >8 µg/mL | time-kill kinetics outcome (bactericidal = ≥3 log reduction in CFU per mL) (B. ovatus MMX 3503): bactericidal at 8×MIC at 6, 24 and 48 hr; at 4×MIC at 24 and 48 hr; and at 2×MIC at 24 hr with rebound growth at 48 hr | % S [4]: 100% | MIC50 [4]: 0.25 µg/mL (≈ 0.652 µM) | MIC90 [4]: 0.5 µg/mL (≈ 1.3 µM) | % S (Klebsiella spp.): 78.3% | MIC50 (Klebsiella spp.): ≤0.06 µg/mL | MIC90 (Klebsiella spp.): >8 µg/mL | % S (Enterobacter spp. [5]): 57.5% | MIC50 (Enterobacter spp. [5]): 0.5 µg/mL (≈ 1.3 µM) | MIC90 (Enterobacter spp. [5]): 64 µg/mL (≈ 167 µM) | % S (MDR Enterobacteriaceae): 75% | MIC50 (MDR Enterobacteriaceae): ≤0.12 µg/mL | MIC90 (MDR Enterobacteriaceae): >8 µg/mL | % S (Prevotella bivia): 100% | MIC50 (Prevotella bivia): 0.03 µg/mL (≈ 0.0782 µM) | MIC90 (Prevotella bivia): ≤0.03 µg/mL | MIC range (Prevotella bivia): ≤0.03 to 0.06 µg/mL

CO[C@H]1/C=C/O[C@@]2(C)Oc3c(C)c(O)c4c(O)c(c5c(nc6cc(C)ccn65)c4c3C2=O)NC(=O)/C(C)=C\C=C\[C@H](C)[C@H](O)[C@@H](C)[C@@H](O)[C@@H](C)[C@H](OC(C)=O)[C@@H]1C [rifaximin]
MIC50 (Bacteroides vulgatus): 0.25 µg/mL (≈ 0.318 µM) | MIC90 (Bacteroides vulgatus): 0.5 µg/mL (≈ 0.636 µM) | MIC range (Bacteroides vulgatus): 0.25 to 4 µg/mL | MIC50 (Fusobacterium spp): 8 µg/mL (≈ 10.2 µM) | MIC90 (Fusobacterium spp): >1024 µg/mL | MIC50 [6]: 1 µg/mL (≈ 1.27 µM) | MIC90 [6]: >1024 µg/mL | MIC50 (Escherichia coli): 32 µg/mL (≈ 40.7 µM) | MIC90 (Escherichia coli): 128 µg/mL (≈ 163 µM) | time-kill kinetics outcome (bactericidal = ≥3 log reduction in CFU per mL) (B. ovatus MMX 3503): rebounded to no-drug control levels at later time points | rapid killing (B. ovatus MMX 3503; 6 hr): ~2 log10 CFU | MIC50 (Bacteroides spp): >1024 µg/mL | MIC90 (Bacteroides spp): >1024 µg/mL | % S (Enterobacter spp. [7]): 34.8% | MIC50 (Enterobacter spp. [7]): 64 µg/mL (≈ 81.4 µM) | MIC90 (Enterobacter spp. [7]): 128 µg/mL (≈ 163 µM) | MIC range (Enterobacter spp. [7]): 32 to 128 µg/mL | Cumulative percentage of isolates inhibited at MIC ([3]; MIC 8 μg/mL): 20.0% | Number of test isolates at MIC ([3]; MIC 8 μg/mL): 1 | % S (Enterococcus faecalis): 100% | MIC50 (Enterococcus faecalis): 4 µg/mL (≈ 5.09 µM) | MIC90 (Enterococcus faecalis): 16 µg/mL (≈ 20.4 µM) | MIC range (Enterococcus faecalis): ≤0.25 to 16 µg/mL

piperacillin/tazobactam [piperacillin-tazobactam]
CLSI QC range (MIC) (B. fragilis ATCC 25285): (4-16) μg/mL
